Where two headings read alike, the source gives them in different places.
Experiments:
[1] = Solubility of solid state forms in solvents (gravimetric or solvent addition); format: physicochemical; conditions: for solubility: thermodynamic from solid, read-out: Solubility
Method: The solubility of certain solid state forms of Compound I was determined in various solvents by either gravimetric solubility or solvent addition.
About 25 mg of compound was weighed into vials. Approximately 5 vol. (0.125 mL) of solvent was added to the solids and the mixtures stirred at the designated temperature (RT or 50° C.). Solutions were noted and an additional 0.125 mL of solvent was added to the slurries. […] If a thicker slurry was noted, 0.25 mL of solvent was added (total volume 0.5 mL). If a thick slurry was again noted, an additional 0.25 mL of solvent was added (total volume 0.75 mL). After stirring for 2 days, the slurries were centrifuged, the supernatant was collected into preweighed vials, and the solvent evaporated at 50° C. (ambient pressure) without stirring. The vials containing the solid residues were dried in a vacuum oven at 50 C, 10^−2-10^−1 Torr, for 3 h before weighing again to determine the mass of solid that was dissolved in the supernatant (i.e. mg solid/mL solvent).
About 20 mg of compound was weighed into vials. Solvent was added in aliquots and stirred at the designated temperature until complete dissolution was observed. This measurement gave a solubility range.

[2] = Solubility in simulated fluids and water; format: physicochemical; conditions: 37° C.
Method: Calibration samples for solubility in simulated fluids were prepared with freebase Compound I.
Solubility in simulated fluids were studied with the mandelate and maleate solids. The simulated fluids FaSSIF (fasted-state intestinal), FaSSGF (fasted-state gastric), and FeSSIF (fed-state intestinal) were removed from the refrigerator, warmed to room temperature, and the pH of each was measured. Between 1.9 and 2.0 mg of each salt was weighed into four vials and 1 mL of each fluid was added, including water. Stir bars (10 mm) were added to the vials and the vials were stirred at 37° C. After 30 mi (mandelate samples) or 1 h (maleate samples), the pH of each solution was measured, then 400 μL of each was removed and syringe filtered with 0.45 µm syringe filters. Approximately 300 μL of the recovered filtrate was diluted 5× with diluent and injected for HPLC analysis. The remainder of the samples in the vials were allowed to stir overnight. After 24 h stirring at 37° C., samples were filtered and diluted as before, and injected for analysis.

[3] = Dynamic vapor sorption (DVS); format: physicochemical
Method: DVS was performed using a DVS Intrinsic 1. The sample (20-25 mg) was loaded into a sample pan, suspended from a microbalance and exposed to a humidified stream of nitrogen gas. The sample was held for a minimum of 5 min at each level and only progressed to the next humidity level if there was <0.002% change in weight between measurements (interval: 60 s) or 240 min had elapsed. The following program was used: • 1. Equilibration at 50% RH • 2. 50% to 2%. (50%, 40%, 30%, 20%, 10%, and 2%) • 3. 2% to 95% (2%, 10%, 20%, 30%, 40%, 50%, 60%, 70%, 80%, 90%, and 95%) • 4. 95% to 2% (95%, 80%, 70%, 60%, 50%, 40%, 30%, 20%, 10%, and 2%) • 5. 2% to 50% (2%, 10%, 20%, 30%, 40%, and 50%)

[4] = Form stability at ambient conditions for one week (XRPD); format: physicochemical; conditions: listed as Pattern C, maleate
Source text: Some of the samples generated in the antisolvent crystallization experiments were mixtures of Pattern B, Pattern C, and Pattern D. These samples were left at ambient conditions for one week, then analyzed again by XRPD.
Pure Pattern B was generated in the antisolvent crystallization with MIBK and heptane. […] The solids were scraped from the XRPD plate and used for simultaneous TGA/DSC analysis. […] After the solids required for the TGA/DSC analysis were transferred to the pan, the remainder of the solids were re-pressed to the XRPD sample plate and analyzed again.

[5] = Salt screening XRPD stages: drying and overnight humidity exposure; conditions: >95% relative humidity overnight
Method: XRPD analysis is typically done in three stages: 1) Wet: XRPD of the wet cake is done for all samples whenever solids appropriate for sampling were observed. 2) Dry: Unique solids are then left on XRPD plates and dried under vacuum at 50° C. for at least 3 h. XRPD of unique dry solids are then collected. 3) Humid: Solids are then exposed to >95% relative humidity overnight and XRPD on resulting solids is collected. The humid environment is generated by placing a beaker of saturated potassium sulfate in water in a sealed container. This procedure is not carried out for any amorphous solids obtained. All XRPD patterns are compared to counter ion XRPD patterns and known free molecule patterns.
A qualitive humidity exposure test was performed by exposing approximately 10 mg of the maleate to 80% RH overnight.

[6] = Stability of crystalline forms at 40° C. and 75% relative humidity (XRPD, HPLC purity); conditions: for Change by XRPD after storage / Degradation by HPLC purity analysis after storage: 40° C., 75% relative humidity
Method: Approximately 10 mg of the Crystalline Pattern D of Compound I Maleate, 20 mg of the Crystalline Pattern C of Compound I Maleate, and 10 mg of the Crystalline Pattern E of Compound I Mandelate were weighed into open 4 mL vials that were placed into a 20 mL vial containing a saturated NaCl solution. The vial was sealed and kept at 40° C. for 7 days, creating an atmosphere at 75% relative humidity in the system. After 7 days, the materials were sampled and plated for XRPD analysis.
The stability test was repeated on Patterns C and D of Compound I Maleate for 11 days.

SMILES: CCOc1ccccc1-c1ccc(N2CCN(C(=O)C3(C(F)(F)F)CCC3)C[C@H]2CC)c(C(=O)N[C@@H]2CN3CCC2CC3)n1.O=C(O)/C=C\C(=O)O [Pattern C Maleate, N-[(3S)-1-azabicyclo[2.2.2]octan-3-yl]-6-(2-ethoxyphenyl)-3-[(2R)-2-ethyl-4-[1-(trifluoromethyl)-cyclobutanecarbonyl]piperazin-1-yl]pyridine-2-carboxamide maleate]
- Solubility (in words) ([1]; MeOH, EtOH, acetone, THF, ACN, MEK, DMSO, and water containing systems at 8:2 vol. water:organic): freely soluble
- solubility ([1]; aqueous with cosolvent or surfactant or cyclodextrin, ACN:water (2:8 vol.), RT): > 200 mg/mL
- solubility ([1]; aqueous with cosolvent or surfactant or cyclodextrin, IPA:water (2:8 vol.), RT): > 200 mg/mL
- solubility ([1]; aqueous with cosolvent or surfactant or cyclodextrin, acetone:water (2:8 vol.), RT): > 200 mg/mL
- solubility ([1]; organic solvent or mixture, ACN, RT): > 200 mg/mL
- solubility ([1]; organic solvent or mixture, DMSO, RT): > 200 mg/mL
- solubility ([1]; organic solvent or mixture, EtOAc, 50° C.): 34 mg/mL
- solubility ([1]; organic solvent or mixture, EtOAc, RT): 21 mg/mL
- solubility ([1]; organic solvent or mixture, EtOH, RT): > 200 mg/mL
- solubility ([1]; organic solvent or mixture, IPA, 50° C.): > 500 mg/mL
- solubility ([1]; organic solvent or mixture, IPA, RT): > 200 mg/mL
- solubility ([1]; organic solvent or mixture, IPA:MtBE (1:1 vol.), 50° C.): 36 to 43 mg/mL
- solubility ([1]; organic solvent or mixture, IPA:heptane (1:1 vol.), 50° C.): 16 to 19 mg/mL
- solubility ([1]; organic solvent or mixture, IPAc, 50° C.): 13 mg/mL
- solubility ([1]; organic solvent or mixture, IPAc, RT): 8 mg/mL
- solubility ([1]; organic solvent or mixture, MEK, RT): > 200 mg/mL
- solubility ([1]; organic solvent or mixture, MIBK, 50° C.): 71 mg/mL
- solubility ([1]; organic solvent or mixture, MIBK, RT): 49 mg/mL
- solubility ([1]; organic solvent or mixture, MeOAc, 50° C.): > 500 mg/mL
- solubility ([1]; organic solvent or mixture, MeOAc, RT): > 200 mg/mL
- solubility ([1]; organic solvent or mixture, MeOAc:IPAc (1:1 vol.), 50° C.): 37 to 45 mg/mL
- solubility ([1]; organic solvent or mixture, MeOH, RT): > 200 mg/mL
- solubility ([1]; organic solvent or mixture, MtBE, 50° C.): 4 mg/mL
- solubility ([1]; organic solvent or mixture, MtBE, RT): 4 mg/mL
- solubility ([1]; organic solvent or mixture, THF, RT): > 200 mg/mL
- solubility ([1]; organic solvent or mixture, acetone, RT): > 200 mg/mL
- solubility ([1]; organic solvent or mixture, acetone:heptane (1:1 vol.), 50° C.): 31 to 37 mg/mL
- solubility ([1]; organic solvent or mixture, chloroform, RT): > 200 mg/mL
- solubility ([1]; organic solvent or mixture, cyclohexane, 50° C.): 3 mg/mL
- solubility ([1]; organic solvent or mixture, cyclohexane, RT): < 3 mg/mL
- solubility ([1]; organic solvent or mixture, n-heptane, 50° C.): 3 mg/mL
- solubility ([1]; organic solvent or mixture, n-heptane, RT): < 3 mg/mL
- solubility ([1]; organic solvent or mixture, toluene, 50° C.): 7 mg/mL
- solubility ([1]; organic solvent or mixture, toluene, RT): < 3 mg/mL
- Behaviour in solvent (in words) ([1]; water and 95:5 vol. water:organic systems): Gels/gums were generated
- solubility at 1 h ([2]; FaSSGF (fasted-state simulated gastric fluid), pH 1.49, fassgf or other biorelevant, thermodynamic from solid, FaSSGF, 1 h): < 2.5 mg/mL
- solubility at 24 h ([2]; FaSSGF (fasted-state simulated gastric fluid), pH 1.49, fassgf or other biorelevant, thermodynamic from solid, FaSSGF, 24 h): > 2.5 mg/mL
- Sample pH ([2]; FaSSGF (initial pH 1.49), 1 h): 4.66
- Sample pH ([2]; FaSSGF (initial pH 1.49), 24 h): 5.08
- solubility at 24 h ([2]; FaSSIF (fasted-state simulated intestinal fluid), pH 6.35, thermodynamic from solid, FaSSIF, 24 h): 1.41 mg/mL
- solubility at 1 h ([2]; FaSSIF (fasted-state simulated intestinal fluid), thermodynamic from solid, FaSSIF, 1 h): 1.24 mg/mL
- Sample pH ([2]; FaSSIF (initial pH 6.35), 1 h): 6.23
- Sample pH ([2]; FaSSIF (initial pH 6.35), 24 h): 6.98
- Solids recovered from the solubility experiment (appearance, XRPD) ([2]; FaSSIF, after 24 h): oily and appeared as amorphous
- solubility at 1 h ([2]; FeSSIF (fed-state simulated intestinal fluid), pH 4.83, thermodynamic from solid, FeSSIF, 1 h): > 2.5 mg/mL
- solubility at 24 h ([2]; FeSSIF (fed-state simulated intestinal fluid), pH 4.83, thermodynamic from solid, FeSSIF, 24 h): > 2.5 mg/mL
- Sample pH ([2]; FeSSIF (initial pH 4.83), 1 h): 1.50
- Sample pH ([2]; FeSSIF (initial pH 4.83), 24 h): 1.89
- solubility at 1 h ([2]; thermodynamic from solid, water, 1 h): > 2.5 mg/mL
- solubility at 24 h ([2]; thermodynamic from solid, water, 24 h): > 2.5 mg/mL
- Sample pH ([2]; water, 1 h): ~6.35
- Sample pH ([2]; water, 24 h): 5.50
- Hygroscopicity (in words) ([3]; DVS): moderately hygroscopic
- Change by XRPD following the DVS analysis ([3]; after DVS from 2 to 95% RH): Slight changes
- Reversible mass gain (DVS) ([3]; from 2 to 95% relative humidity): 9.18 wt. %
- Behaviour at high humidity ([3]; high humidity): began to convert to amorphous
- Form conversion by XRPD at ambient conditions [4]: no observable conversion
- Stability after humidity exposure (XRPD, deliquescence) [5]: stable with no observed deliquescence
- Change by XRPD after storage ([6]; 7 days): No visible change
- Degradation by HPLC purity analysis after storage ([6]; 7 days): no degradation
- Change by XRPD after storage ([6]; 11 days): No visible change
- Degradation by HPLC purity analysis after storage ([6]; 11 days): no degradation
- Stability on storage (in words) ([6]; over a week at 40° C. and 75% RH): stable

Reference: patent US20240208963A1, “CRYSTALLINE MELANOCORTIN SUBTYPE-2 RECEPTOR (MC2R) ANTAGONIST” (Crinetics Pharmaceuticals, Inc., priority 2022, published 2024)
